Laboratory results published in the supplement of paper PMC6965134.
± gives the standard deviation of the averaged measurements.

Assay: TIMS collisional cross section (CCS, N2) of the lipid ion; higher = larger ion cross section
Settings: ionization mode: positive, one isomer drawn

Structure (SMILES) | TIMS collisional cross section (sample type: HeLa) | TIMS collisional cross section (sample type: Liver) | TIMS collisional cross section (sample type: plasma)
CCCCCCCCCCCCCCCCOC[C@H](COP(=O)([O-])OCC[N+](C)(C)C)OC(=O)CCCCCCCCCCCCC [PC O- 16:0@_14:0] (ion (formula + adduct): [C38H78NO7P+H] 1+) | 280.8 Å² |  | 
CCCCCCCC/C=C\CCCCCCCC(=O)O[C@H](COC(=O)CCCCCCCCCCCCCCC)COP(=O)(O)OCCN [PE 16:0@_18:1] (ion (formula + adduct): [C39H76NO8P+H] 1+) |  | 275.7 Å² | 275.3 Å²
CCCCC/C=C\C/C=C\C/C=C\C/C=C\C/C=C\CCC(=O)OC[C@@H](O)COP(=O)(O)OCCN [LPE 22:5] (ion (formula + adduct): [C27H46NO7P+H] 1+) | 220.9 Å² | 221 Å² | 220.3 ± 1.4 Å²
CC/C=C\C/C=C\C/C=C\C/C=C\C/C=C\C/C=C\CCC(=O)OC[C@@H](COC(=O)CCCCCCCCCCCCCCC)OC(=O)CCCC/C=C\C/C=C\C/C=C\C/C=C\CC [TG 16:0_18:4_22:6] (ion (formula + adduct): [C59H94O6+NH4] 1+) |  | 322.1 Å² | 
CCCCC/C=C\C/C=C\CCCCCCCCCC(=O)O[C@H](COC(=O)CCCCCCC/C=C\CCCCCCCC)COP(=O)([O-])OCC[N+](C)(C)C [PC 18:1_20:2] (ion (formula + adduct): [C46H86NO8P+H] 1+) | 295.9 Å² |  | 
CCCCC/C=C\C/C=C\C/C=C\CCCCC(=O)O[C@H](COC(=O)CCCCCCCCCCCCCCCCC)COP(=O)(O)OCCN [PE 18:0@_18:3] (ion (formula + adduct): [C41H76NO8P+H] 1+) |  |  | 279 Å²
CCCCCCCCCCCCCCCCCC(=O)OC[C@@H](COC(=O)CCCCCCCCCCCCCCC)OC(=O)CCCCCCCCCCCCCCCC [TG 16:0_17:0_18:0] (ion (formula + adduct): [C54H104O6+NH4] 1+) | 323.3 Å² | 323.6 Å² | 323.4 Å²
CCCCC/C=C\C/C=C\CCCCCCCC(=O)OC[C@@H](COC(=O)CCCCCCC/C=C\CCCCCC)OC(=O)CCCCCCC/C=C\CCCCCC [TG 16:1_16:1_18:2] (ion (formula + adduct): [C53H94O6+NH4] 1+) | 311.9 Å² | 310.5 Å² | 311.2 Å²
CCCCCCCC/C=C\CCCCCCCC(=O)O[C@H](COC(=O)CCCCCCCCCCCCCCC)COC(=O)CCCCCCCCCCCCCCCCCCC [TG 16:0_18:1_20:0] (ion (formula + adduct): [C57H108O6+NH4] 1+) |  | 330.6 Å² | 
CCCCCCCC/C=C\C/C=C\C/C=C\CCCC(=O)O[C@H](COC(=O)CCCCCCC/C=C\CCCCCCCC)COP(=O)([O-])OCC[N+](C)(C)C [PC 18:1_20:3] (ion (formula + adduct): [C46H84NO8P+H] 1+) | 294 Å² | 293.7 Å² | 
CCCCCCCCCCCCCCCCCCCCCC(=O)OC[C@@H](COC(=O)CCCCCCCCCCCCCCCCC)OC(=O)CCCCCCCCCCCCCCCCCC [TG 18:0_19:0_22:0] (ion (formula + adduct): [C62H120O6+NH4] 1+) |  | 346.5 Å² | 
CCCCC/C=C\C/C=C\C/C=C\CCCCCCC(=O)O[C@@H](CO)COC(=O)CCCCCCCCCCCCCCC [DG 16:0_20:3_0:0] (ion (formula + adduct): [C39H70O5+H] 1+) |  | 265.1 Å² | 
CC/C=C\C/C=C\C/C=C\C/C=C\C/C=C\CCCCCC(=O)OC[C@@H](COC(=O)CCCCCCC/C=C\C/C=C\CCCCC)OC(=O)CCC/C=C\C/C=C\C/C=C\C/C=C\CCCCC [TG 18:2_20:4_22:5] (ion (formula + adduct): [C63H100O6+NH4] 1+) |  | 333 Å² | 
